The text below walks through data of ChEMBL document CHEMBL4251678, “Coculture of Two Developmental Stages of a Marine-Derived Aspergillus alliaceus Results in the Production of the Cytotoxic Bianthrone Allianthrone A” (J Nat Prod, 2018).

For experiment [1], the system named is SK-MEL-5. In words: Cytotoxicity against human SK-MEL-5 cells assessed as reduction in cell viability after 48 hrs by MTT assay. It is filed as functional, cell-based. As to conditions: SK-MEL-5, 48 h. (In general: Formazan colour is commonly taken as a measure of viable cells.)
For experiment [2], the system named is HCT-116. As to the kind of experiment: Cytotoxicity against human HCT116 cells assessed as reduction in cell viability after 48 hrs by MTT assay. It is filed as functional, cell-based. As to conditions: HCT-116, 48 h.
Experiment [3] relates to A549. As to the kind of experiment: Cytotoxicity against human A549 cells assessed as reduction in cell viability after 48 hrs by MTT assay. As to conditions: A549, 48 h. It is filed as functional, cell-based.
Experiment [4] has as its system PC-3. In words: Cytotoxicity against human PC3 cells assessed as reduction in cell viability after 48 hrs by MTT assay. It is filed as functional, cell-based. As to conditions: PC-3, 48 h.
For experiment [5], the system named is MCF7. As to the kind of experiment: Cytotoxicity against human MCF7 cells assessed as reduction in cell viability after 48 hrs by MTT assay. It is filed as functional, cell-based. As to conditions: MCF7, 48 h.
In experiment [6] the test system is Enterococcus faecium. As to the kind of experiment: Antimicrobial activity against Enterococcus faecium ATCC 49032 at 20.5 to 43.5 ug/ml by microbroth method. The format is functional, organism-based. In general terms: Dilution methods test growth across graded concentrations, often in twofold steps.
Experiment [7] concerns Pseudomonas aeruginosa. As to the kind of experiment: Antimicrobial activity against Pseudomonas aeruginosa ATCC 15442 at 20.5 to 43.5 ug/ml by microbroth method. It is filed as functional, organism-based.
For experiment [8], the system named is Escherichia coli. As to the kind of experiment: Antimicrobial activity against Escherichia coli ATCC 8739 at 20.5 to 43.5 ug/ml by microbroth method. The format is functional, organism-based.
Experiment [9] relates to Candida albicans. As to the kind of experiment: Antifungal activity against Candida albicans ATCC 90027 at 20.5 to 43.5 ug/ml by microbroth method. It is filed as functional, organism-based.
Experiment [10] relates to Bacillus subtilis. As to the kind of experiment: Antimicrobial activity against Bacillus subtilis ATCC 49343 at 20.5 to 43.5 ug/ml by microbroth method. It is filed as functional, organism-based.
The test system of experiment [11] is Staphylococcus aureus. In words: Antimicrobial activity against Staphylococcus aureus ATCC 25923 at 20.5 to 43.5 ug/ml by microbroth method. It is filed as functional, organism-based.
Experiment [12] relates to SK-MEL-5. As to the kind of experiment: Cytotoxicity against human SK-MEL-5 cells assessed as cell survival at 250 uM after 48 hrs by MTT assay. As to conditions: SK-MEL-5, 48 h, read-out: Survival. It is filed as functional.
Experiment [13] concerns HCT-116. In words: Cytotoxicity against human HCT116 cells assessed as cell survival at 250 uM after 48 hrs by MTT assay. It is filed as functional. As to conditions: HCT-116, 48 h, read-out: Survival.
For experiment [14], the system named is A549. In words: Cytotoxicity against human A549 cells assessed as cell survival at 250 uM after 48 hrs by MTT assay. It is filed as functional. As to conditions: A549, 48 h, read-out: Survival.
Experiment [15] has as its system PC-3. In words: Cytotoxicity against human PC3 cells assessed as cell survival at 250 uM after 48 hrs by MTT assay. It is filed as functional. As to conditions: PC-3, 48 h, read-out: Survival.
The subject of experiment [16] is MCF7. In words: Cytotoxicity against human MCF7 cells assessed as cell survival at 250 uM after 48 hrs by MTT assay. As to conditions: MCF7, 48 h, read-out: Survival. It is filed as functional.

The source made the active and inactive calls. The calls are words filed in the database; no cut-off is given here. Where only a bound is given, the exact number is not on record here.

With `COc1cc2c(c(O)c1Cl)C(=O)c1c(O)cc(C[C@H](C)O)cc1[C@H]2[C@@H]1c2cc(C[C@H](C)O)cc(O)c2C(=O)c2c1cc(OC)c(Cl)c2O`, the IC50 in [1] was 12.2 µM; in experiment [2], 10.5 µM; in experiment [3], more than 20 µM; in [4] it was more than 20 µM; in [5], more than 20 µM. Also, the result in [6], in experiment [7], in experiment [8], in experiment [9], in experiment [10] and in experiment [11] was inactive.

Take `COc1cc2c(c(O)c1Cl)C(=O)c1c(O)cc(C[C@H](C)O)cc1[C@@H]2[C@H]1c2cc(C[C@H](C)O)cc(O)c2C(=O)c2c1cc(OC)c(Cl)c2O`: the IC50 in experiment [1] was 19.7 µM; in experiment [2], 13.7 µM; in experiment [3] it was more than 20 µM; in [4], more than 20 µM; in experiment [5] it was more than 20 µM. Moreover, the result in [6], in experiment [7], in experiment [8], in experiment [9], in [10] and in experiment [11] was inactive.

With `COc1cc2c(c(O)c1Cl)C(=O)c1c(O)cc(C[C@H](C)O)cc1[C@H]2[C@H]1c2cc(C[C@H](C)O)cc(O)c2C(=O)c2c1cc(OC)c(Cl)c2O`, the IC50 in experiment [1] is 11 µM; in experiment [2], 9 µM; in experiment [3], more than 20 µM; in [4], more than 20 µM; in experiment [5] it was more than 20 µM. Further, the outcome in experiment [6], in [7], in [8], in experiment [9], in experiment [10] and in experiment [11] was inactive.

`COc1cc([C@@H]2c3cc4c(cc3[C@@H](O[C@@H]3O[C@@H]5CO[C@@H](C)O[C@H]5[C@H](O)[C@H]3O)[C@H]3COC(=O)[C@H]23)OCO4)cc(OC)c1O` [ETOPOSIDE]: the viability at 250 µM in experiment [12] was 26.4%; in experiment [13], 11.6%; in experiment [14] it was 19.7%; in [15], 45.5%; in experiment [16] it was 43.8%.

The IC50 is the concentration needed to halve the response being measured.
